Tested on: P. falciparum 3D7 parasites
Assay: Metabolomic profiling of compound-treated parasites (LC/MS);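 on Metabolite data: 3-Phosphoglycerate: Log2 fold change in abundance versus untreated parasite controls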;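 on Metabolite data: Myo-Inositol: Log2 fold change in abundance versus untreated parasite controls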;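 on Metabolite data: N-Carbamoyl-L-Aspartate: Log2 fold change in abundance versus untreated parasite controls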;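 on Metabolite data: Nicotinate: Log2 fold change in abundance versus untreated parasite controls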
Format: cell-based
Parameters: Metabolite data: dTMP / Metabolite data: GMP / Metabolite data: S-Adenosyl-L-Homocysteine / Metabolite data: 1_3-Bisphosphoglyceric acid: scale not given here
Procedure: The metabolite extraction protocol was performed as described elsewhere ([Allman et al., 2016]). Briefly, 1 mL of trophozoites that were magnetically purified to a concentration of 1×10^8 parasites/mL were placed into wells with 4 mL of RPMI 1640 media and allowed to recover for one hour. […] The culture was incubated for another 2.5 hr. The culture was centrifuged and quenched with 90% methanol containing 0.25 μM ^13C,^15N-Labeled-Aspartate, vortexed, and centrifuged. The supernatant was transferred to a new tube and dried for storage. Prior to analysis, the samples were resuspended to a final concentration of 1×10^8 parasites/mL in a solution of 3% methanol:water containing 1 μM chlorpropamide as an internal standard.
The chromatographic conditions used in this experiment were performed with slight modifications from previous methods ([Zhang et al., 2018]). Briefly, a Waters XSelect HSS C18 column was used on a gradient reverse-phase chromatographic configuration with 97:3 water:methanol with 10 mM tributylamine and 15 mM acetic acid (solvent A) and methanol (solvent B). A Thermo-Scientific Exactive Plus Orbitrap mass spectrometer was operated in negative mode for the detection of the metabolites. Peak picking and integration were performed using El-Maven LC/MS data processing software. The peak data were then exported to Excel where metabolite areas were normalized to the internal standards, blank subtracted, and averaged by condition.

Compound: CC1(C)N=C(N)N=C(N)N1OCCCOc1cc(Cl)c(Cl)cc1Cl [WR99210]
- Metabolite data: 1_3-Bisphosphoglyceric acid: 0
- Metabolite data: 2_3-Diphosphoglyceric acid: 0.15
- Metabolite data: 3-Phosphoglycerate: 0
- Metabolite data: 4-Aminobutyrate: 0.89
- Metabolite data: 4-Phosphopantothenate: 0.06
- Metabolite data: 4-phosphopantetheine: 0
- Metabolite data: 5-aminopentanoic acid: 0
- Metabolite data: 5-phosphoribosyl-1-pyrophosphate: 0
- Metabolite data: 6-Phospho-D-Gluconate: 0.03
- Metabolite data: ADP-D-Glucose: -0.24
- Metabolite data: Acetyl-CoA: 0.03
- Metabolite data: Acetyllysine: 0.3
- Metabolite data: Aconitate: -0.02
- Metabolite data: CDP: 0.18
- Metabolite data: CDP-Ethanolamine: 0.69
- Metabolite data: CDP-choline: 0
- Metabolite data: CMP: -0.07
- Metabolite data: CTP: -0.11
- Metabolite data: Citrate/Isocitrate: 0.01
- Metabolite data: Cyclic-AMP: 0
- Metabolite data: Dihydroorotate: 0.21
- Metabolite data: FAD: 0.03
- Metabolite data: FMN: -0.26
- Metabolite data: Fructose-1,6-Bisphosphate: 0
- Metabolite data: Fumarate: 0.11
- Metabolite data: GDP: 0.23
- Metabolite data: GMP: 0.07
- Metabolite data: GTP: -0.36
- Metabolite data: Glucose-1/6-Phosphate: -0.02
- Metabolite data: Glutathione Disulfide: 0.14
- Metabolite data: Hexose: 0
- Metabolite data: Hydroxyisocaproic acid: 0
- Metabolite data: Indole: 0.05
- Metabolite data: Ketoleucine: 0
- Metabolite data: L-arginino-succinate: 0
- Metabolite data: Lactate: 0.42
- Metabolite data: Malate: 0.06
- Metabolite data: Myo-Inositol: 0.64
- Metabolite data: N-Acetyl-Glutamate: 0.09
- Metabolite data: N-Acetyl-L-Alanine: 0.02
- Metabolite data: N-Acetyl-L-Ornithine: 0.2
- Metabolite data: N-Carbamoyl-L-Aspartate: 0.03
- Metabolite data: NAD+: 0.17
- Metabolite data: NADH: 3.14
- Metabolite data: NADP+: 0.03
- Metabolite data: NADPH: 0.5
- Metabolite data: Nicotinate: 0.23
- Metabolite data: Octulose 8/1-Phosphate: 0.08
- Metabolite data: Orotate: 0.09
- Metabolite data: PD: 0
- Metabolite data: PE: 0
- Metabolite data: PEEK: 0
- Metabolite data: Phenol Red: 0
- Metabolite data: Pyroglutamic acid: 0.03
- Metabolite data: S-Adenosyl-L-Homocysteine: 0
- Metabolite data: S-methyl-5'-thioadenosine: 0.14
- Metabolite data: SD: 0
- Metabolite data: Sedoheptulose Bisphosphate: 0.08
- Metabolite data: UDP: 0.22
- Metabolite data: UDP-D-Glucose: 0.05
- Metabolite data: UDP-D-Glucuronate: 0.01
- Metabolite data: UDP-N-Acetyl-Glucosamine: 0.06
- Metabolite data: UMP: 0
- Metabolite data: UTP: -0.42
- Metabolite data: a-ketoglutarate: 0.08
- Metabolite data: acetyl-aspartate: 0
- Metabolite data: arginine: 0
- Metabolite data: asparagine: 0
- Metabolite data: aspartate: 0
- Metabolite data: biotin: 0
- Metabolite data: chlorpropamide: 0
- Metabolite data: coenzyme A: 0
- Metabolite data: dAMP: -0.3
- Metabolite data: dATP: -0.89
- Metabolite data: dCDP: 0.46
- Metabolite data: dCMP: 0.32
- Metabolite data: dCTP: 0.42
- Metabolite data: dGDP/ADP: 0
- Metabolite data: dGMP/AMP: 0
- Metabolite data: dGTP/ATP: 0
- Metabolite data: dTDP: 0.16
- Metabolite data: dTMP: -0.05
- Metabolite data: dTTP: -0.28
- Metabolite data: folate: 0
- Metabolite data: glucono-lactone: 0
- Metabolite data: glutamate: 0
- Metabolite data: glutamine: 0
- Metabolite data: glutathione: 0
- Metabolite data: histidine: 0
- Metabolite data: hydroxyproline/Aminolevulinate: 0
- Metabolite data: isoleucine: 0
- Metabolite data: leucine: 0
- Metabolite data: maleic acid: 0
- Metabolite data: methionine: 0
- Metabolite data: nicotinamide mononucleotide: 0
- Metabolite data: orotidine-5'-phosphate: 0
